Results published in US8268849B2, “Multifunctional Antioxidants and methods of use thereof” (priority 2007, dated 2012).
“Also recorded” adds a separate entry of the source.

Legend:
[1] = Chelation study by ESI-MS, Fe^2+ solution; type: binding; details: 10:1 metal:compound, 45 minutes of mixing
Protocol: (§1) The relative amount of ions bound by JHX-1-JHX-8 was determined by electrospray ionization mass spectrometry (ESI-MS) according to the method of Baron and Hering (Baron and Hering (1998) Spectrometry J. Environ. Qual., 27:844-850). In this method solutions containing Fe^2+, Fe^3+, Cu^1+, Cu^2+, Zn^2+, Ca^2+, Mg^2+ were mixed with compound in ratios of 10:1, 1:1, and 1:10. After 45 minutes of mixing, each solution was directly infused into the MS with constant ionization energy and the relative decreases of the parent peaks in these solutions were determined. […] FIG. 3 illustrates ion binding with increased Fe^+2 concentrations results in decreased compound parent peak heights by ESI-MS when compounds contain appropriate functional groups for metal ion chelation.

[2] = Chelation study by ESI-MS, Cu^2+ solution; type: binding; details: 10:1 metal:compound, 45 minutes of mixing
Protocol: as §1

[3] = Chelation study by ESI-MS, Ca^2+ solution; type: binding; details: 10:1 metal:compound, 45 minutes of mixing
Protocol: as §1

[4] = Chelation study by ESI-MS, Mg^2+ solution; type: binding; details: 10:1 metal:compound, 45 minutes of mixing
Protocol: as §1

[5] = test system: SRA-1 human lens epithelium cell line; experiment: MTS cell viability assay; type: cell-based; details: 1 mM compound; for protection against H2O2 induced loss of cell viability: 1.0 mM H2O2, 2 hours
Protocol: The SRA-1 human lens epithelium cell line (Ibaraki et al. (1998) Exp. Eye Res., 67:577-85) was used to evaluate the antioxidant activity of JHX-1-8. […] The cells were passaged when 80-90% confluent by treatment with trypsin-EDTA. The cells were plated at a density of 1×10^4 cells onto 96-well plates or 1×10^6 cells onto 100-mm dishes. ROS levels/effects in cells treated with JHX-1-8 were compared to similar cells treated with the water soluble Vitamin E derivative, Trolox (antioxidant control) or no drug (control). […] Cells were cultured in 96-well plates and exposed for 2 hours to media containing 1.0 mM H2O2 (FIG. 5A) or Fenton reagents (1.0 mM H2O2 and 1.0 mM Fe^2+, FIG. 5B) with/without 1 mM JHX-1-8 or Trolox. Viability was measured as the absorbance of MTS stain at 490 nm 1 hour after the addition of 20 μL of […] AQueous One Solution Cell Proliferation Assay to each well. The results were normalized to blank control (100%) since absorbance is directly proportional to the living cell population.

[6] = Chelation study by ESI-MS, Cu^1+ solution; type: binding; details: 10:1 metal:compound, 45 minutes of mixing
Protocol: as §1

[7] = Chelation study by ESI-MS, Fe^3+ solution; type: binding; details: 10:1 metal:compound, 45 minutes of mixing
Protocol: as §1

[8] = Chelation study by ESI-MS, Zn^2+ solution; type: binding; details: 10:1 metal:compound, 45 minutes of mixing
Protocol: as §1

[9] = test system: SRA-1 human lens epithelial cells; experiment: ROS staining (H2DCF-DA) in lens epithelial cells; type: cell-based; details: 24 hour incubation, H2DCF-DA stain; for ROS staining, ROS initiated by homocysteine: 10 mM homocysteine (ER stress); for ROS staining, ROS generated by Fenton reaction: 0.1 mM Fe^2+ and 0.1 mM hydrogen peroxide
Protocol: The SRA-1 human lens epithelium cell line (Ibaraki et al. (1998) Exp. Eye Res., 67:577-85) was used to evaluate the antioxidant activity of JHX-1-8. These cells were cultured in DMEM media containing 10% fetal bovine serum (FBS), glutamine, NaHCO3, penicillin, and streptomycin at 37° C. in humidified atmosphere of 5% CO2 and 95% air until subconfluent (2-4 days). The cells were passaged when 80-90% confluent by treatment with trypsin-EDTA. The cells were plated at a density of 1×10^4 cells onto 96-well plates or 1×10^6 cells onto 100-mm dishes. ROS levels/effects in cells treated with JHX-1-8 were compared to similar cells treated with the water soluble Vitamin E derivative, Trolox (antioxidant control) or no drug (control).
The compounds were initially screened for antioxidant activity in 24 hour cultured SRA-1 human lens epithelial cells. Reactive oxygen species (ROS) in these cells were generated through both the Fenton reaction in which 0.1 mM Fe^2+ and 0.1 mM hydrogen peroxide were added to the culture media, or by culturing the lens with 10 mM homocysteine which induces endoplasmic reticular (ER) stress that results in the unfolded protein response (UPR) that subsequently generates the ROS. ROS were visualized with 2′,7′-dichlorodihydrofluorescein diacetate (DCF) staining. More specifically, after 24 hours of incubation, all cells were washed 2× with PBS and then incubated at room temperature for 1 hour with 10 μM H2DCF-DA (Invitrogen) stain. Fluorescent ROS staining was analyzed by quantifying pixel intensities of images obtained by fluorescent microscopy. As illustrated below in FIGS. 4A and 4B, compounds with chelating groups only produced a dose-dependent reduction in Fenton Reaction generated ROS. […] Indeed, homocysteine activates ER stress which subsequently initiates ROS through an Unfolded Protein Response (UPR).

[10] = test system: diabetic cataract formation; experiment: Cataract formation in diabetic rats; type: in vivo; details: streptozotocin diabetic rats
Protocol: Diabetes was induced in 100 g Sprague Dawley rats with streptozotocin injection (75 mg/kg) and all rats with blood sugar levels >300 mg/dL were divided into 4 groups of 8 rats each. One group received only standard rat chow (untreated diabetic) while each of the other groups received chow containing either 0.0125% ARI Al1576, 0.025% JHX-4 or 0.025% JHX-8. Lens changes were monitored by at 3-5 day intervals by slit lamp following tropicamide mydriasis. As summarized in FIGS. 8A-8C, vacuole formation began by 14 days in the untreated diabetic group with cortical opacities observed by 29 days and mature cataracts by 44 days. […] In the two antioxidant treated groups, vacuole formation was delayed by 19 and 11 days by JHX-4 and JHX-8, respectively, and cortical cataracts by 9 and 3 days, respectively. At the end of the study (47 days) all rats were equally diabetic with HbA1C levels >11.9%. All eyes were enucleated and lens sorbitol levels were measured as previously described (Kador et al. (2007) J. Ocul. Pharmacol. Ther., 23:116-23). […] Tissue levels of JHX-4 and -8 in the lens, neural retina and brain were determined after 47 days of feeding as described above (FIG. 10). […] Overall drug levels in both the lens and retina were ca. 3-fold higher in the diabetic rats with brain levels also now present. This increase may be due to either an accumulation of drug, or increased permeability of tissues and the BBB to drug in streptozotocin diabetic rats (Mooradian et al. (2005) Diabetes, 54:2977-82).

[11] = Chelation studies by ESI-MS, overall statement on ion binding; details: binding order Cu^1+=Cu^2+>Fe^2+=Fe^3+>Zn^2+; no binding with Ca^2+ or Mg^2+
Protocol: as §1

[12] = Gino et al. (2001); cited from earlier work
[13] = Gino et al. (2001); cited from earlier work; remark: listed apart in the source

SMILES	% Parent Peak Remaining at 10:1 Solution of Metal:Compound [1] [%]	% Parent Peak Remaining at 10:1 Solution of Metal:Compound [2] [%]	% Parent Peak Remaining at 10:1 Solution of Metal:Compound [3] [%]	% Parent Peak Remaining at 10:1 Solution of Metal:Compound [4] [%]	protection against H2O2 induced loss of cell viability [5]	% Parent Peak Remaining at 10:1 Solution of Metal:Compound [6] [%]	% Parent Peak Remaining at 10:1 Solution of Metal:Compound [7] [%]	% Parent Peak Remaining at 10:1 Solution of Metal:Compound [8] [%]	ROS staining, ROS initiated by homocysteine [9]	increase of HLEC viability compared to controls ([5]; Fenton reagents (1.0 mM H2O2 and 1.0 mM Fe^2+), 2 hours) [%]	lens changes by slit lamp ([10]; 0.0125% in chow, 47 days)	lens sorbitol levels ([10]; end of study (47 days))	ion binding [11]	ROS staining, ROS generated by Fenton reaction [9]	reactivity toward alkyl radicals compared to α-tocopherol [12] [fold]	reactivity to peroxy radicals compared to α-tocopherol [13]
CN(C)S(=O)(=O)N1CCN(c2ncc(O)cn2)CC1 [JHX-2, 1-N,N′-dimethylsulfamoyl-4-(5-hydroxy-2-pyrimidyl)piperazine]	100.0	100.0	100.0	100.0	protecting against H2O2 induced loss of cell viability	100.0	100.0	100.0	reduced ROS staining similar to that with Trolox	–	–	–	–	–	–	–
Cc1c(C)c2c(c(C)c1O)CCC(C)(C(=O)O)O2 (stereo not shown) [Trolox, reference compound]	–	–	–	–	–	–	–	–	–	15	–	–	–	–	–	–
O=C1NC(=O)C2(N1)c1cc(F)ccc1-c1ccc(F)cc12 [AL1576, reference compound]	–	–	–	–	–	–	–	–	–	–	No lens changes were observed	No sorbitol was present	–	–	–	–
COc1cc(OC)nc(N2CC(=O)N(S(=O)(=O)N(C)C)C(=O)C2)n1 [JHX-7, 1-N,N′-dimethylsulfamoyl-4-(4,6-dimethoxy-2-pyrimidyl)piperazine-2,6-dione]	7.3	3.4	100.0	100.0	–	4.1	7.6	13.8	–	–	–	–	bind ions	decreased staining; also recorded: protected against ROS	–	–
CN(C)S(=O)(=O)N1CCN(c2ncccn2)CC1 [JHX-1, 1-N,N′-dimethylsulfamoyl-4-(2-pyrimidyl)piperazine]	100.0	100.0	100.0	100.0	–	100.0	100.0	100.0	–	–	–	–	–	–	–	–
COc1nc(N2CCN(S(=O)(=O)N(C)C)CC2)nc(OC)c1O [JHX-6, 1-N,N′-dimethylsulfamoyl-4-(4,6-dimethoxy-5-hydroxy-2-pyrimidyl)piperazine]	100.0	100.0	100.0	100.0	protecting against H2O2 induced loss of cell viability	100.0	100.0	100.0	reduced ROS staining similar to that with Trolox	–	–	–	–	–	–	–
Cc1nc(N(C)C)nc(C)c1O [2-N,N-Dimethyl-4,6-dimethyl-5-hydroxypyrimidine]	–	–	–	–	–	–	–	–	–	–	–	–	–	–	5	essentially equally reactive
CN(C)S(=O)(=O)N1C(=O)CN(c2ncccn2)CC1=O [JHX-3, 1-N,N′-dimethylsulfamoyl-4-(2-pyrimidyl)piperazine-2,6-dione]	8.1	4.4	100.0	100.0	–	3.6	10.0	15.3	–	–	–	–	bind ions	decreased staining; also recorded: protected against ROS	–	–
COc1cc(OC)nc(N2CCN(S(=O)(=O)N(C)C)CC2)n1 [JHX-5, 1-N,N′-dimethylsulfamoyl-4-(4,6-dimethoxy-2-pyrimidyl)piperazine]	100.0	100.0	100.0	100.0	–	100.0	100.0	100.0	–	–	–	–	–	–	–	–
